The source of these data is patent publication US9987276B2 (Celgene CAR LLC, priority 2008, dated 2018).

The target in test [1] is T1, BTK (Homo sapiens (Human), UniProt Q06187). Description: Omnia assay for potency assessment against BTK. The format is biochemical. The conditions noted are these: [BTK]=5 nM, Omnia assay; read-out: BTK Inhibition (IC50). As for the experimental part: The modified BTK-optimized reagent conditions for the above protocol are:
[BTK]=5 nM, [ATP]=[…], [Y5-Sox]=[…] (ATP KMapp˜[…]).

In test [2] the target is T1, BTK. The test is described as follows: BTK Ramos cellular assay (PLCγ2 phosphorylation). The format is cell-based. The settings on record: Ramos cells, 1 hour compound, anti-IgM stimulation, p-PLCγ2; read-out: BTK Inhibition (IC50), BTK Ramos cellular inhibition. As for the experimental part:
Ramos cells were grown in suspension in T225 flasks, spun down, resuspended in 50 ml serum-free media and incubated for 1 hour. […] Ramos cells were incubated with compound for 1 hour, washed again and resuspended in 100 ul serum-free media. Cells were then stimulated with 1 μg of goat F(ab′)2 Anti-Human IgM and incubated on ice for 10 minutes to activate B cell receptor signaling pathways. After 10 minutes, the cells were washed once with PBS and then lysed on ice with Invitrogen Cell Extraction buffer. 16 μg total protein from lysates were loaded on gel and blots were probed for phosphorylation of the BTK substrate PLCγ2.

The target of another test is ITK (Homo sapiens (Human), UniProt Q08881). The test is described as follows: Omnia assay for potency assessment against active forms of ITK kinase. The settings on record: [ITK]=10 nM, [ATP]=25, [Y6-Sox]=10 μM; read-out: ITK Inhibition. The test is classed as biochemical. As for the experimental part:
[ITK]=10 nM, [ATP]=25 [Y6-Sox]=10 μM (ATP KMapp=33 μM).

A further test has as its target EGFR-WT (Homo sapiens (Human), UniProt P00533). The test is described as follows: Omnia assay for potency assessment against EGFR (WT).
The mark [3] stands for this setting: read-out: EGFR (wild type inhibition), EGFR wild type.

Structures are written as SMILES. Where two headings read alike, the source gives them in different places.

Chain of EGFR-WT (P00533 668-1210): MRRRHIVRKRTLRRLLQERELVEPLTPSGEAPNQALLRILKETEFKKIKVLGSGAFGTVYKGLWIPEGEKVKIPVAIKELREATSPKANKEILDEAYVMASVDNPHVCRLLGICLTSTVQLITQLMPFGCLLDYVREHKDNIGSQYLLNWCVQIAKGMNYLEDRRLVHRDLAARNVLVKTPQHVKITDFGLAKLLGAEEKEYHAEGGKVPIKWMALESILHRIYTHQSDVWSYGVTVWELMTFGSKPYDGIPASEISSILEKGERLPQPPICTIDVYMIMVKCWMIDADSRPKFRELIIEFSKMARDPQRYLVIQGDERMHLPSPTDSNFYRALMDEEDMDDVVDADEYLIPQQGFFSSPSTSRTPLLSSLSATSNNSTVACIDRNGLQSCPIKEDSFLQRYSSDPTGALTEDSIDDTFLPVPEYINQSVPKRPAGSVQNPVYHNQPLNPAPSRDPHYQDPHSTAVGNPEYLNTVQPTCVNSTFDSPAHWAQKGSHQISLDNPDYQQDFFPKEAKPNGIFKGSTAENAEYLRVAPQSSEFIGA
T1 sequence (Q06187 whole entry): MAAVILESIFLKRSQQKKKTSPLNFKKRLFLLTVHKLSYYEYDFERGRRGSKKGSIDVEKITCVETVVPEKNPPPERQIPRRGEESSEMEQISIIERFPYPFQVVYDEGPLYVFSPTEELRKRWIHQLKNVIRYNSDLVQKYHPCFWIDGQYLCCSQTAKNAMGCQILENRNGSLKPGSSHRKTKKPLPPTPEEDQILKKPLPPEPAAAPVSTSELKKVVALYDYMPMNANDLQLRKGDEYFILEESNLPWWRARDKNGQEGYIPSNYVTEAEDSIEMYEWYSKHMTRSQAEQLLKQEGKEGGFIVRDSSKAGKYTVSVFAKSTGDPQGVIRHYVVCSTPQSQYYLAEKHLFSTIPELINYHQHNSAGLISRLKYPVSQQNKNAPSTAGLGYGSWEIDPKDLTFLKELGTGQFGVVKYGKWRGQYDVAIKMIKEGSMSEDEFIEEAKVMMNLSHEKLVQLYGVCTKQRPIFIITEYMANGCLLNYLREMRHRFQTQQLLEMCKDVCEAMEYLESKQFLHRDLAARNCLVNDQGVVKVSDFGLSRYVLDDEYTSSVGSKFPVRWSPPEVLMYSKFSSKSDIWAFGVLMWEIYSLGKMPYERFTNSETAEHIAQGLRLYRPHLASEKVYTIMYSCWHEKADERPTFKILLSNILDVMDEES
Chain of ITK (Q08881 whole entry): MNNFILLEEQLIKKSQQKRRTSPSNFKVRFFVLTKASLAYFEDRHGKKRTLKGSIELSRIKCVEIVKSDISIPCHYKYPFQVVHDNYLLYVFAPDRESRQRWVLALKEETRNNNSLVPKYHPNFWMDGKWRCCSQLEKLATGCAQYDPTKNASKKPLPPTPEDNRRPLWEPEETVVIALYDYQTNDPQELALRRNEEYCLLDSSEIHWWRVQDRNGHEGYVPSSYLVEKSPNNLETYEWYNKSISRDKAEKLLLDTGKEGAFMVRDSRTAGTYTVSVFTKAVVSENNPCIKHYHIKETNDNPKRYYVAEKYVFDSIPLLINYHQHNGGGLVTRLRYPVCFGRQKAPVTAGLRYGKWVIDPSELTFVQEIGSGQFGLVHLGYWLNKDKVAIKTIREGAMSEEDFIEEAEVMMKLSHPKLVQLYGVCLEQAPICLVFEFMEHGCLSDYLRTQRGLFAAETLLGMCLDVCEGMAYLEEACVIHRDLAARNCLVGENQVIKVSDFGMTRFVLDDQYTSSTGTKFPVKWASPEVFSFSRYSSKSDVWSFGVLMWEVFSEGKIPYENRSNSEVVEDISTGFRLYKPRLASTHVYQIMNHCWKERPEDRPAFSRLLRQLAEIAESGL

On to `C=CC(=O)N1CCOc2ccc(Nc3nc(Nc4ccc(OCCOC)cc4)ncc3C(C)=O)cc21` [Compound I-150, 1-(6-{5-Acetyl-2-[4-(2-methoxy-ethoxy)-phenylamino]-pyrimidin-4-ylamino}-2,3-dihydro-benzo[1,4]oxazin-4-yl)-propenone], for which the IC50 was less than 10 nM on BTK [1], 10 to 100 nM on BTK [2], less than 10 nM at ITK and less than 10 nM on EGFR-WT (setting [3]).
Take `C=CC(=O)N1CCOc2ccc(Nc3nc(Nc4ccc(N(C)C(=O)C(F)(F)F)nc4)ncc3C(C)=O)cc21` [Compound I-142, N-(5-(5-acetyl-4-(4-acryloyl-3,4-dihydro-2H-benzo[b][1,4]oxazin-6-ylamino)pyrimidin-2-ylamino)pyridin-2-yl)-2,2,2-trifluoro-N-methylacetamide]: the IC50 was less than 10 nM at BTK [1], 10 to 100 nM at BTK [2], less than 10 nM on ITK and 10 to 100 nM on EGFR-WT.
Consider `C=CC(=O)Nc1cccc(Nc2nc(Nc3cccc(OCCN(C)C)c3)ncc2F)c1` [Compound I-233, N-(3-(2-(3-(2-(dimethylamino)ethoxy)phenylamino)-5-fluoropyrimidin-4-ylamino)phenyl)acrylamide], for which the IC50 on BTK [1], on BTK [2], on ITK and at EGFR-WT (setting [3]) was less than 10 nM in each case.
In the case of `C=C(C)C(=O)c1ccc(Nc2nc(Nc3ccccc3)ncc2F)cc1` [Compound I-185, 1-(4-(5-fluoro-2-(phenylamino)pyrimidin-4-ylamino)phenyl)-2-methylprop-2-en-1-one], the IC50 on BTK [1] was less than 10 nM; at BTK [2], 100 to 1000 nM; on ITK, less than 10 nM; on EGFR-WT, 10 to 100 nM.
For the compound `C=CC(=O)N1CCOc2ccc(Nc3nc(Nc4ccc(N5CCOCC5)cc4)ncc3C(C)=O)cc21` [Compound I-169, 1-{6-[5-Acetyl-2-(4-morpholin-4-yl-phenylamino)-pyrimidin-4-ylamino]-2,3-dihydro-benzo[1,4]oxazin-4-yl}-propenone], the IC50 on BTK [1], at BTK [2], on ITK and at EGFR-WT (setting [3]) was less than 10 nM throughout.
In the case of `C=CC(=O)N1CCC[C@@H](Oc2nc(Nc3cccc(OC)c3)ncc2F)C1` [Compound I-190, (R)-1-(3-(5-fluoro-2-(3-methoxyphenylamino)pyrimidin-4-yloxy)piperidin-1-yl)prop-2-en-1-one], the IC50 at BTK [1] was less than 10 nM; on BTK [2], 10 to 100 nM; at ITK it was 10 to 100 nM; at EGFR-WT it was 100 to 1000 nM.
Regarding `C=CC(=O)N1CCOc2ccc(Nc3nc(Nc4ccc(N5CCOCC5)nc4)ncc3C(C)=O)cc21` [Compound I-168, 1-{6-[5-Acetyl-2-(6-morpholin-4-yl-pyridin-3-ylamino)-pyrimidin-4-ylamino]-2,3-dihydro-benzo[1,4]oxazin-4-yl}-propenone], the IC50 at BTK [1] is less than 10 nM; on BTK [2] it was 10 to 100 nM; at ITK it was less than 10 nM; at EGFR-WT it was 10 to 100 nM.
On to `C=CC(=O)Nc1cccc(Oc2nc(Nc3ccc(OC)nc3)ncc2C)c1` [Compound I-186, N-(3-(2-(6-methoxypyridin-3-ylamino)-5-methylpyrimidin-4-yloxy)phenyl)acrylamide], for which the IC50 at BTK [1], at BTK [2], on ITK and at EGFR-WT (setting [3]) was less than 10 nM each time.
Take `C=CC(=O)Nc1cc(Nc2nc(Nc3ccc(OCCOC)cc3)ncc2F)ccc1Cl` [Compound I-108, N-(2-chloro-5-(5-fluoro-2-(4-(2-methoxyethoxy)phenylamino)pyrimidin-4-ylamino)phenyl)acrylamide]: the IC50 on BTK [1] was less than 10 nM; on BTK [2] it was 10 to 100 nM; on ITK, 10 to 100 nM; against EGFR-WT, 100 to 1000 nM.
